According to patent US20240389592A1, “FUNGICIDAL COMPOSITIONS” (SYNGENTA CROP PROTECTION AG, priority 2021, published 2024):

Columns and labels:
[1] = test system: Glomerella lagenarium syn. Colletotrichum lagenarium (Anthracnose of cucurbits); experiment: Glomerella lagenarium liquid culture growth inhibition (microtiter plate, PDB); format: cell-based; conditions: single active ingredient, 72 hrs
Text: A synergistic effect exists whenever the action of an active ingredient combination is greater than the sum of the actions of the individual components. The action to be expected E for a given active ingredient combination obeys the so-called COLBY formula and can be calculated as follows (COLBY, S. R. “Calculating synergistic and antagonistic responses of herbicide combination”. Weeds, Vol. 15, pages 20-22; 1967): • ppm=milligrams of active ingredient (=a.i.) per liter of spray mixture • X=% action by active ingredient A) using p ppm of active ingredient • Y=% action by active ingredient B) using q ppm of active ingredient. According to COLBY, the expected (additive) action of active ingredients A)+B) using p+q ppm of active ingredient is If the action actually observed (O) is greater than the expected action (E), then the action of the combination is super-additive, i.e. there is a synergistic effect. In mathematical terms, synergism corresponds to a positive value for the difference of (O-E). In the case of purely complementary addition of activities (expected activity), said difference (O-E) is zero. A negative value of said difference (O-E) signals a loss of activity compared to the expected activity. Glomerella Lagenarium Syn. Colletotrichum lagenarium (Anthracnose of Cucurbits): Conidia of the fungus from cryogenic storage were directly mixed into nutrient broth (PDB potato dextrose broth). A DMSO solution of the test compounds was placed into a microtiter plate (96-well format) and the nutrient broth containing the fungal spores was added to it. The test plates were incubated at 24 C and the inhibition of growth was determined photometrically after 72 hrs at 620 nm.

[2] = test system: Phakopsora pachyrhizi (Asian soybean rust); experiment: Phakopsora pachyrhizi soybean leaf disk test after whole plant spray; format: in vivo; conditions: single active ingredient, evaluation 11 to 14 days after inoculation
Text: (§1) A synergistic effect exists whenever the action of an active ingredient combination is greater than the sum of the actions of the individual components. The action to be expected E for a given active ingredient combination obeys the so-called COLBY formula and can be calculated as follows (COLBY, S. R. “Calculating synergistic and antagonistic responses of herbicide combination”. Weeds, Vol. 15, pages 20-22; 1967): • ppm=milligrams of active ingredient (=a.i.) per liter of spray mixture • X=% action by active ingredient A) using p ppm of active ingredient • Y=% action by active ingredient B) using q ppm of active ingredient.
(§2) According to COLBY, the expected (additive) action of active ingredients A)+B) using p+q ppm of active ingredient is
(§3) If the action actually observed (O) is greater than the expected action (E), then the action of the combination is super-additive, i.e. there is a synergistic effect. In mathematical terms, synergism corresponds to a positive value for the difference of (O-E). In the case of purely complementary addition of activities (expected activity), said difference (O-E) is zero. A negative value of said difference (O-E) signals a loss of activity compared to the expected activity.
Phakopsora pachyrhizi (Soybean Rust):
Whole soybean plants are treated with the recited active ingredients 4 weeks after planting. 1 day after spraying leaf disks are cut from the first trifoliate leaf. Five repetitions at each rate are conducted. The leaf disks are inoculated with Phakopsora pachyrhizi (Asian soybean rust) one day after treatment. Evaluation of the leaf disks is conducted 11 to 14 days after inoculation and the activity is derived from the relation of the treated vs untreated, infested check. The rates of the active ingredients used are given in Table as g active ingredient (a.i.)/ha.

[3] = test system: Septoria tritici (leaf blotch); experiment: Septoria tritici liquid culture growth inhibition (microtiter plate, PDB); format: cell-based; conditions: single active ingredient, 72 hrs
Text: as §1, §2, §3
Septoria tritici (Leaf Blotch):
Conidia of the fungus from cryogenic storage were directly mixed into nutrient broth (PDB potato dextrose broth). A DMSO solution of the test compounds was placed into a microtiter plate (96-well format) and the nutrient broth containing the fungal spores was added to it. The test plates were incubated at 24 C and the inhibition of growth was determined photometrically after 72 hrs.

CCOC(=O)c1cnn(Cc2ccc(O/C=C(\OCC)C(F)(F)F)cc2)c1 [Compound A-1.2, ethyl 1-[[4-[[(1Z)-2-ethoxy-3,3,3-trifluoro-1-propen-1-yl]oxy]phenyl]methyl]-1H-pyrazole-4-carboxylate]
Observed Activity (%) ([1]; 10 g ai/ha): 0%
Observed Activity (%) ([1]; 20 g ai/ha, 24 C, 620 nm): 0%
inhibition at 0.1 g/ha ([2]; Phakopsora pachyrhizi, foliar, 0.1 g ai/ha, read-out: Observed Activity (%)): 16%
Observed Activity (%) ([3]; 10 g ai/ha): 0%
Observed Activity (%) ([3]; 20 g ai/ha, 24 C): 0%

O=C(Nc1ccccc1F)c1ccc(-c2noc(C(F)(F)F)n2)cc1 [Flufenoxadiazam, flufenoxadiazam]
Observed Activity (%) ([1]; 0.74 g ai/ha): 20%
Observed Activity (%) ([1]; 2.22 g ai/ha): 20%
Observed Activity (%) ([1]; 6.66 g ai/ha): 50%
Observed Activity (%) ([1]; 20 g ai/ha, 24 C, 620 nm): 90%
Observed Activity (%) ([2]; 0.1 g ai/ha): 3%
Observed Activity (%) ([2]; 0.3 g ai/ha): 5%
Observed Activity (%) ([2]; 0.9 g ai/ha): 31%

CCC(=O)Oc1c(OC)ccnc1C(=O)N[C@@H](C)C(=O)O[C@@H](C)[C@@H](C)c1ccccc1C [Metarylpicoxamid, metarylpicoxamid]
Observed Activity (%) ([2]; 0.1 g ai/ha): 0%
Observed Activity (%) ([2]; 0.3 g ai/ha): 51%

inpyrfluxam
Observed Activity (%) ([2]; 0.1 g ai/ha): 13%
Observed Activity (%) ([2]; 0.3 g ai/ha): 25%
Observed Activity (%) ([2]; 0.9 g ai/ha): 68%
Observed Activity (%) ([3]; 0.0246 g ai/ha): 20%
Observed Activity (%) ([3]; 0.074 g ai/ha): 70%
Observed Activity (%) ([3]; 0.22 g ai/ha): 90%
